Active and inactive are the calls of the source. The calls are words filed in the database; no cut-off is given here.
Assays:
[1] = target: Protein farnesyltransferase (Homo sapiens, UniProt P49354+P49356); experiment: In vitro inhibition of [3H]FPP incorporation into recombinant P21ras of NIH3T3 cells by farnesyl transferase; assay type: cell-based
[2] = target: Protein farnesyltransferase (Mus musculus) (UniProt Q61239+Q8K2I1); experiment: In vivo inhibition of p21ras-farnesyl transferase in NIH3T3 cells (No inhibition); assay type: functional

| SMILES | IC50 [1] | inhibition [2] |
| --- | --- | --- |
| CSCC[C@H](NC(=O)c1cccc(CNC(=O)[C@@H](N)CS)c1)C(=O)O | 0.38 µM | inactive |
| CC[C@@H](C)[C@H](NC(=O)[C@@H](NC(=O)[C@H](CSC(=O)OCc1ccccc1)NC(=O)OCc1ccccc1)C(C)C)C(=O)N[C@@H](CCSC)C(=O)OC | 90 µM | inactive |
| CC[C@H](C)[C@H](NC(=O)[C@@H](NC(=O)[C@@H](N)CS)C(C)C)C(=O)N[C@@H](CCSC)C(=O)O | 0.34 µM |  |
| COC(=O)[C@H](CCSC)NC(=O)c1cccc(CNC(=O)[C@H](CS)NC(C)=O)c1 | 100 µM | inactive |
| COC(=O)[C@H](CCSC)NC(=O)c1cccc(CNC(=O)[C@H](CSC(=O)OCc2ccccc2)NC(=O)OCc2ccccc2)c1 | 100 µM |  |
| CSCC[C@H](NC(=O)c1cccc(CNC(=O)[C@H](CS)NC(=O)OCc2ccccc2)c1)C(=O)O | 14 µM | inactive |
| COC(=O)[C@H](CCSC)NC(=O)c1cccc(CNC(=O)[C@@H](N)CS)c1 | 18 µM |  |
